# Like-named read-outs stand apart in the source and are kept apart here.
# Columns and labels:
# Assay in all cases: KINOMEscan
# Assay type in all cases: binding
# FLT3(K663Q) = FLT3(K663Q) (Homo sapiens (Human), UniProt P36888, K663Q); settings: 10000 nM, read-out: Percent Control
# TSSK3 = TSSK3 (Homo sapiens (Human), UniProt Q96PN8); settings: TSSK3, 10000 nM; read-out: Percent Control
# MLK1 = MLK1 (Homo sapiens (Human), UniProt P80192); settings: MLK1, 10000 nM; read-out: Percent Control
# CDK7 = CDK7 (Homo sapiens (Human), UniProt P50613); settings: CDK7, 10000 nM; read-out: Percent Control
# ANKK1 = ANKK1 (Homo sapiens (Human), UniProt Q8NFD2); settings: ANKK1, 10000 nM; read-out: Percent Control
# FLT3(D835H) = FLT3(D835H) (Homo sapiens (Human), UniProt P36888, D835H); settings: 10000 nM, read-out: Percent Control
# PIK3CB = PIK3CB (Homo sapiens (Human), UniProt P42338); settings: 10000 nM, read-out: Percent Control
# GRK1 = GRK1 (Homo sapiens (Human), UniProt Q15835); settings: GRK1, 10000 nM; read-out: Percent Control
# DDR2 = DDR2 (Homo sapiens (Human), UniProt Q16832); settings: DDR2, 10000 nM; read-out: Percent Control
# [1] = biological target: ABL1(H396P)-phosphorylated (Homo sapiens (Human), UniProt P00519, H396P); settings: 10000 nM, read-out: Percent Control
# CSNK1G2 = CSNK1G2 (Homo sapiens (Human), UniProt P78368); settings: CSNK1G2, 10000 nM; read-out: Percent Control
# MYO3A = MYO3A (Homo sapiens (Human), UniProt Q8NEV4); settings: 10000 nM, read-out: Percent Control
# ULK1 = ULK1 (Homo sapiens (Human), UniProt O75385); settings: ULK1, 10000 nM; read-out: Percent Control
# LZK = LZK (Homo sapiens (Human), UniProt O43283); settings: 10000 nM, read-out: Percent Control
# MKNK2 = MKNK2 (Homo sapiens (Human), UniProt Q9HBH9); settings: MKNK2, 10000 nM; read-out: Percent Control
# MEK2 = MEK2 (Homo sapiens (Human), UniProt P36507); settings: MEK2, 10000 nM; read-out: Percent Control
# PLK4 = PLK4 (Homo sapiens (Human), UniProt O00444); settings: PLK4, 10000 nM; read-out: Percent Control
# CAMK1 = CAMK1 (Homo sapiens (Human), UniProt Q14012); settings: CAMK1, 10000 nM; read-out: Percent Control
# SLK = SLK (Homo sapiens (Human), UniProt Q9H2G2); settings: 10000 nM, read-out: Percent Control
# CSF1R-autoinhibited = CSF1R-autoinhibited (Homo sapiens (Human), UniProt P07333); settings: 10000 nM, read-out: Percent Control
# CSNK1G1 = CSNK1G1 (Homo sapiens (Human), UniProt Q9HCP0); settings: CSNK1G1, 10000 nM; read-out: Percent Control
# CAMK2B = CAMK2B (Homo sapiens (Human), UniProt Q13554); settings: 10000 nM, read-out: Percent Control
# TLK1 = TLK1 (Homo sapiens (Human), UniProt Q9UKI8); settings: TLK1, 10000 nM; read-out: Percent Control
# GRK2 = GRK2 (Homo sapiens (Human), UniProt P25098); settings: GRK2, 10000 nM; read-out: Percent Control
# BMPR1A = BMPR1A (Homo sapiens (Human), UniProt P36894); settings: 10000 nM, read-out: Percent Control
# MST3 = MST3 (Homo sapiens (Human), UniProt Q9Y6E0); settings: MST3, 10000 nM; read-out: Percent Control
# NEK4 = NEK4 (Homo sapiens (Human), UniProt P51957); settings: NEK4, 10000 nM; read-out: Percent Control
# MEK6 = MEK6 (Homo sapiens (Human), UniProt P52564); settings: MEK6, 10000 nM; read-out: Percent Control
# MARK1 = MARK1 (Homo sapiens (Human), UniProt Q9P0L2); settings: MARK1, 10000 nM; read-out: Percent Control
# IRAK1 = IRAK1 (Homo sapiens (Human), UniProt P51617); settings: read-out: Percent Control
# CSNK1D = CSNK1D (Homo sapiens (Human), UniProt P48730); settings: 10000 nM, read-out: Percent Control
# YANK2 = YANK2 (Homo sapiens (Human), UniProt Q9NY57); settings: YANK2, 10000 nM; read-out: Percent Control
# PFTAIRE2 = PFTAIRE2 (Homo sapiens (Human), UniProt Q96Q40); settings: PFTAIRE2, 10000 nM; read-out: Percent Control
# ZAK = ZAK (Homo sapiens (Human), UniProt Q9NYL2); settings: 10000 nM, read-out: Percent Control
# ZAK, sequence (Q9NYL2 whole entry): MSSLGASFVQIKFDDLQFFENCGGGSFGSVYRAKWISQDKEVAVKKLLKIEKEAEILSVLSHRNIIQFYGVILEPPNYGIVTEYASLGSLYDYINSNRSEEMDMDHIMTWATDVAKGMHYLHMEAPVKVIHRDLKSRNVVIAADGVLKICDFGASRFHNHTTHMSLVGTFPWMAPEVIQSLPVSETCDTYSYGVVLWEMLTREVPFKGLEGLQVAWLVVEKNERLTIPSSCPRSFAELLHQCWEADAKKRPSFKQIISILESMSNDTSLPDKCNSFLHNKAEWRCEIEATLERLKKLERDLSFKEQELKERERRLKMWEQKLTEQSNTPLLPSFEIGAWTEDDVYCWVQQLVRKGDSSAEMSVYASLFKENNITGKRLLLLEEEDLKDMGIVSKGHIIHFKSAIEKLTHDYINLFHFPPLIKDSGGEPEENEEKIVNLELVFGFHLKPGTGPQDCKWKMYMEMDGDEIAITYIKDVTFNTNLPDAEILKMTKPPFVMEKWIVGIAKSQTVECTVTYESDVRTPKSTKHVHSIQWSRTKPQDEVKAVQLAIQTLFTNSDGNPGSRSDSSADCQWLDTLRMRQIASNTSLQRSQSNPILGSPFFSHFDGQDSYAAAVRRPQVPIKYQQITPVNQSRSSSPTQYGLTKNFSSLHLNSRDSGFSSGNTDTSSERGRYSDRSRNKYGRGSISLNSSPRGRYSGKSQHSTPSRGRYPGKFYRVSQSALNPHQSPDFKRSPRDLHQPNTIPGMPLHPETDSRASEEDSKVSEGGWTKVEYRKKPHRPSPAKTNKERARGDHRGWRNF
# NEK4, sequence (P51957 whole entry): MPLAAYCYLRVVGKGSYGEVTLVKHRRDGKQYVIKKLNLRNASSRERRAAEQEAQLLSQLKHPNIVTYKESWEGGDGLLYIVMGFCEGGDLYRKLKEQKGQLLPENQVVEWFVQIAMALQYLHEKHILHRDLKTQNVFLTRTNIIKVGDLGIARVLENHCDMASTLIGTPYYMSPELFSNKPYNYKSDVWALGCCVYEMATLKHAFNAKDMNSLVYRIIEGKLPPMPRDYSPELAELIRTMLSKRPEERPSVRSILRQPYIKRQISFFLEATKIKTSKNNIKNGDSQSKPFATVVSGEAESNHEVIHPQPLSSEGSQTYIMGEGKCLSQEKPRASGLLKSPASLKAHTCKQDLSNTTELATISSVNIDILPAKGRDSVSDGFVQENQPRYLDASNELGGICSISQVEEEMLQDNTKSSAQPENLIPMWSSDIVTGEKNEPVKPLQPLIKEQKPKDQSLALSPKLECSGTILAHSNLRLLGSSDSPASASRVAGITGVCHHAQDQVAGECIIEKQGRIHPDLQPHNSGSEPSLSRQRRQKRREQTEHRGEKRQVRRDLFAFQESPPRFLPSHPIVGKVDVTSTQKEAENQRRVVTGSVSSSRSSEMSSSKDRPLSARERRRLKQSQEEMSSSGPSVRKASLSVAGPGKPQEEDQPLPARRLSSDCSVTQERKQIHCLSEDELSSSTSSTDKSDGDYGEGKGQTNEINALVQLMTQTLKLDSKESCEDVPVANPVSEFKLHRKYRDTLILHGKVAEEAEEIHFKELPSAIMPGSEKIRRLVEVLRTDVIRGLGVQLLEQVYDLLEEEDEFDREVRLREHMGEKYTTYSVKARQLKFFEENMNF
# MARK1, sequence (Q9P0L2 whole entry): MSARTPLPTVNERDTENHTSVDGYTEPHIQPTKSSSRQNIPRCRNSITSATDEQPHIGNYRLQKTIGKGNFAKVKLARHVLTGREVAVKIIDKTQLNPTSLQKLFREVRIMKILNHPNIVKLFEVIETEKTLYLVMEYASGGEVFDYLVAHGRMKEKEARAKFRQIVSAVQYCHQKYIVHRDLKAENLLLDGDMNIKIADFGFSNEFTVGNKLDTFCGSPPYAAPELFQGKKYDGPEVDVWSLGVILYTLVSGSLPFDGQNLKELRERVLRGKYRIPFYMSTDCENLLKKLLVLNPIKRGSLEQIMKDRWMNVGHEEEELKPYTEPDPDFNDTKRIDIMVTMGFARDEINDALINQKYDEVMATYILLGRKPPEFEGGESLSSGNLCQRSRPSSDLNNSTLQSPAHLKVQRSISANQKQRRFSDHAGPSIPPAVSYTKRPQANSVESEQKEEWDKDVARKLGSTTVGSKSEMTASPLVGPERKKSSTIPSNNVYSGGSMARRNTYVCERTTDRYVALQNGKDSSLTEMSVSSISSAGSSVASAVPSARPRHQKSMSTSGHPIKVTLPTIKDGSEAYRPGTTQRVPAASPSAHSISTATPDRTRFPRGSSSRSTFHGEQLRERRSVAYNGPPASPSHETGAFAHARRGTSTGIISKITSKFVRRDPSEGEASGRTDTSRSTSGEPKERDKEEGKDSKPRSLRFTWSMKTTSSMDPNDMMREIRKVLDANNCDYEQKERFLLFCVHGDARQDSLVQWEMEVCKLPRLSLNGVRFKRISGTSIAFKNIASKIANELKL
# TSSK3, sequence (Q96PN8 whole entry): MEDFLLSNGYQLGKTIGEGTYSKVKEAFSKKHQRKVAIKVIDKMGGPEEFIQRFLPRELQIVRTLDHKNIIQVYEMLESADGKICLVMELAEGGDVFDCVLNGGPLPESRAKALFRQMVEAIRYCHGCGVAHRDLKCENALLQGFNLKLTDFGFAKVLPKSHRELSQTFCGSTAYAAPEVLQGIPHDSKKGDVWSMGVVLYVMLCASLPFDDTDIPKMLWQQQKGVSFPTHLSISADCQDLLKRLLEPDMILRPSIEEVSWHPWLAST
# ULK1, sequence (O75385 whole entry): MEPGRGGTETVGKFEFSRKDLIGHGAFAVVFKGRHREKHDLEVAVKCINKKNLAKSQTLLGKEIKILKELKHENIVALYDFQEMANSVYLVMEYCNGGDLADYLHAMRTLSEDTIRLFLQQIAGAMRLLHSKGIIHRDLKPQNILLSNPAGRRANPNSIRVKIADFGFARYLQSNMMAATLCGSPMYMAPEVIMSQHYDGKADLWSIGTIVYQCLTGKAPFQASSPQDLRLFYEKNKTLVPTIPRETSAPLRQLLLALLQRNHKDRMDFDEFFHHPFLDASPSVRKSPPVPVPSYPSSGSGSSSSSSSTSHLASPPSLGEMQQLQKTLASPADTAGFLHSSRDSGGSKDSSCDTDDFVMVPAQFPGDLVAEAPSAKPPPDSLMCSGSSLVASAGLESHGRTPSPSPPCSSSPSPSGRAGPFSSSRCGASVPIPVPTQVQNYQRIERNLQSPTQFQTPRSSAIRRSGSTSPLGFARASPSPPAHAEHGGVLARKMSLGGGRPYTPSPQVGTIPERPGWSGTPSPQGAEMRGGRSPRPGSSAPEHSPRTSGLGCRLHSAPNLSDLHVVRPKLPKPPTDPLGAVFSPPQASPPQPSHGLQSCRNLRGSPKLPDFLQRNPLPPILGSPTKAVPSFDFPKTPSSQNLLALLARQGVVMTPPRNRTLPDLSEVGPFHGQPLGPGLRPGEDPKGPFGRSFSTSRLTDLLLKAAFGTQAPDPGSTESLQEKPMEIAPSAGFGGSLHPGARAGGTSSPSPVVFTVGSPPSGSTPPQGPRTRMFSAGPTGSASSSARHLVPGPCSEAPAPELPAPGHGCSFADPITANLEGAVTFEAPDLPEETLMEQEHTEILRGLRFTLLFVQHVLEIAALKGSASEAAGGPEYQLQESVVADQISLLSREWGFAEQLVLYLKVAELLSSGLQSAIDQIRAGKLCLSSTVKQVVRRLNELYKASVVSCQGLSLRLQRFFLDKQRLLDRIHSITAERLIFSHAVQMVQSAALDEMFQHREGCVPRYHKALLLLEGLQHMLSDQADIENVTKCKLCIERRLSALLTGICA
# BMPR1A, sequence (P36894 24-532): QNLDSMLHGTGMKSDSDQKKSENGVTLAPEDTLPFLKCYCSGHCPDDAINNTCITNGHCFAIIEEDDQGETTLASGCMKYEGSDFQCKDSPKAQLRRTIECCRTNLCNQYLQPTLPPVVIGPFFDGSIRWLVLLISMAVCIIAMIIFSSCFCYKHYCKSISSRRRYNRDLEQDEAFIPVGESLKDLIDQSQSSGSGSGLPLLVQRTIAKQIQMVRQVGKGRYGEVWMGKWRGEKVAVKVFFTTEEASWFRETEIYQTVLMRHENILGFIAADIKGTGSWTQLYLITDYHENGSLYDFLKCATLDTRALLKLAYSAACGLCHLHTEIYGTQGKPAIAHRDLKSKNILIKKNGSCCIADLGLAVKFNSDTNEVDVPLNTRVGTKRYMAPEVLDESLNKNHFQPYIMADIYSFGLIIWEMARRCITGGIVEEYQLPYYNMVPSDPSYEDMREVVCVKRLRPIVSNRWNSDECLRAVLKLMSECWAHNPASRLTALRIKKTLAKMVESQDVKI
# MEK2, sequence (P36507 whole entry): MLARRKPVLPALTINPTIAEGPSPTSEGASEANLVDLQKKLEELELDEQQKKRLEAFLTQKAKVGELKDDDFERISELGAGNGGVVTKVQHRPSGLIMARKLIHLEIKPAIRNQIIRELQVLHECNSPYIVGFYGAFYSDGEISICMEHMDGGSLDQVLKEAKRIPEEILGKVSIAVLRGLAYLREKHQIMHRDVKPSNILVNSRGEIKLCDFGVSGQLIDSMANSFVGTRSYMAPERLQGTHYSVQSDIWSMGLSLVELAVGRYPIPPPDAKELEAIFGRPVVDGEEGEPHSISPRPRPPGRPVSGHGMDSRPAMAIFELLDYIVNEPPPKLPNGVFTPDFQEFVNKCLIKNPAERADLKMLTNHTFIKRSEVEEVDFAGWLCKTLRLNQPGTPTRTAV
# CDK7, sequence (P50613 whole entry): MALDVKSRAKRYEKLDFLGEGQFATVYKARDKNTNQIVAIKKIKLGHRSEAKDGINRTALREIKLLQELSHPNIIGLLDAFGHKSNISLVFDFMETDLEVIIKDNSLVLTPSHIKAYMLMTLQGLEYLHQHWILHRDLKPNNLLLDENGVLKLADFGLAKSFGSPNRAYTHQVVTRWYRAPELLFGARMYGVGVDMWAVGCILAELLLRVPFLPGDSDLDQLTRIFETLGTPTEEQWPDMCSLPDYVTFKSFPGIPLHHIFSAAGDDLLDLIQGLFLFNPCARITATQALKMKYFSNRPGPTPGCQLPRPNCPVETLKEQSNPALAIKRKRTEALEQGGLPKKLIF
SMILES,remaining binding at 10 µM (FLT3(K663Q)) [%],remaining binding at 10 µM (TSSK3) [%],remaining binding at 10 µM (MLK1) [%],remaining binding at 10 µM (CDK7) [%],remaining binding at 10 µM (ANKK1) [%],remaining binding at 10 µM (FLT3(D835H)) [%],remaining binding at 10 µM (PIK3CB) [%],remaining binding at 10 µM (GRK1) [%],remaining binding at 10 µM (DDR2) [%],remaining binding at 10 µM [1] [%],remaining binding at 10 µM (CSNK1G2) [%],remaining binding at 10 µM (MYO3A) [%],remaining binding at 10 µM (ULK1) [%],remaining binding at 10 µM (LZK) [%],remaining binding at 10 µM (MKNK2) [%],remaining binding at 10 µM (MEK2) [%],remaining binding at 10 µM (PLK4) [%],remaining binding at 10 µM (CAMK1) [%],remaining binding at 10 µM (SLK) [%],remaining binding at 10 µM (CSF1R-autoinhibited) [%],also measured
"COc1cc(N2CCC(N3CCN(C)CC3)CC2)ccc1Nc1ncc2c(n1)N(C)c1sc(C)nc1C(=O)N2 [Compound 3, 6-((2-methoxy-4-(4-(4-methylpiperazin-1-yl)piperidin-1-yl)phenyl)amino)-2,4-dimethyl-4,9-dihydro-10H-pyrimido[5,4-b]thiazolo[5,4-e][1,4]diazepin-10-one]",96,98,94,94,80,67,97,86,100,19,81,79,100,100,80,100,81,100,70,90,"remaining binding at 10 µM (CSNK1G1): 86%; remaining binding at 10 µM (CAMK2B): 81%; remaining binding at 10 µM (TLK1): 90%; remaining binding at 10 µM (GRK2): 100%; remaining binding at 10 µM (BMPR1A): 81%; remaining binding at 10 µM (MST3): 89%; remaining binding at 10 µM (NEK4): 100%; remaining binding at 10 µM (MEK6): 100%; remaining binding at 10 µM (MARK1): 87%; remaining binding at 10 µM (IRAK1; IRAK1, 10000 nM): 100%; remaining binding at 10 µM (CSNK1D): 54%; remaining binding at 10 µM (YANK2): 85%; remaining binding at 10 µM (PFTAIRE2): 86%; remaining binding at 10 µM (ZAK): 92%"
"COc1cc(N2CCC(N3CCN(C)CC3)CC2)ccc1Nc1ncc2c(n1)N(C)c1sc(C)nc1C(=O)N2C [Compound 5, 6-((2-methoxy-4-(4-(4-methylpiperazin-1-yl)piperidin-1-yl)phenyl)amino)-2,4,9-trimethyl-4,9-dihydro-10H-pyrimido[5,4-b]thiazolo[5,4-e][1,4]diazepin-10-one]",96,98,41,100,92,100,87,81,100,100,80,100,98,100,90,99,19,92,100,100,"remaining binding at 10 µM (CSNK1G1): 97%; remaining binding at 10 µM (CAMK2B): 93%; remaining binding at 10 µM (TLK1): 81%; remaining binding at 10 µM (GRK2): 100%; remaining binding at 10 µM (BMPR1A): 97%; remaining binding at 10 µM (MST3): 90%; remaining binding at 10 µM (NEK4): 100%; remaining binding at 10 µM (MEK6): 98%; remaining binding at 10 µM (MARK1): 89%; remaining binding at 10 µM (IRAK1; IRAKI, 10000 nM): 100%; remaining binding at 10 µM (CSNK1D): 87%; remaining binding at 10 µM (YANK2): 100%; remaining binding at 10 µM (PFTAIRE2): 100%; remaining binding at 10 µM (ZAK): 100%"
